The text below walks through data of PubChem BioAssay (NCI).

SMILES strings stand for the structures.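 Exposure lasted 48 hours, with cells grown in 96-well plates and compounds tested at five concentrations. At the TGI there is no net growth.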

Common to all, as to assay: inhibition of tumour cell growth, NCI panel, 48 h
Assay [1] relates to SNB-19 CNS.
Assay [2] concerns SR leukemia.
Assay [3] concerns CCRF-CEM leukemia.
Assay [4] concerns IGROV1 ovarian.
The subject of assay [5] is UO-31 renal.
Assay [6] concerns SK-MEL-5 melanoma.
For assay [7], the system named is SF-539 CNS.
Assay [8] deals with OVCAR-4 ovarian.
Assay [9] relates to NCI-H522 lung.
Assay [10] relates to SNB-75 CNS.
Assay [11] concerns NCI-H226 lung.
Assay [12] has as its system A498 renal.
Assay [13] relates to M14 melanoma.
In assay [14] the test system is EKVX NSCLC.
The subject of assay [15] is UACC-257 melanoma.
Assay [16] relates to MCF7 breast.
Assay [17] has as its system MOLT-4 leukemia.
Assay [18] concerns PC-3 prostate.
Assay [19] concerns MALME-3M melanoma.
Assay [20] relates to NCI-H460 lung.

Take `CC(=O)Oc1ccc2cc(Oc3ccc(Cl)c(Cl)c3)c(=O)oc2c1`: the TGI was more than 100 µM in assay [1]; more than 100 µM in assay [2]; more than 100 µM in assay [3]; more than 100 µM in assay [4]; 51 µM in assay [5]; 35.5 µM in assay [6]. In addition, the TGI in [7] was 46.8 µM; in assay [8], more than 100 µM; in [9] it was 46.5 µM; in [10] it was more than 100 µM; in assay [11], 82.9 µM; in [12], 65.8 µM. For the same compound, the TGI is more than 100 µM in assay [13]; 80.8 µM in assay [14]; 85.1 µM in [15]; 80.6 µM in assay [16]; more than 100 µM in assay [17]; 53.3 µM in [18]. Also, the TGI in [19] stood at 94.1 µM; in assay [20], 66 µM.
Turning to `C=C1CCCC(C)(C)C1CCC1(C)CCC(C(C)C(=O)OC)OO1` (stereo not given), the TGI in [1] was more than 18.1 µM; in [2], 9.78 µM; in assay [3] it was more than 18 µM; in assay [4], 1.7 µM; in assay [5], 1.91 µM; in assay [6] it was more than 25 µM. For the same compound, the TGI is more than 22.2 µM in [7]; 17.4 µM in assay [8]; 12.6 µM in [9]; 7.56 µM in [10]; more than 25 µM in [11]; more than 15.3 µM in assay [12]. For the same compound, the TGI in assay [13] was more than 25 µM; in assay [14], 21.8 µM; in assay [15] it was more than 25 µM; in assay [16], more than 25 µM; in assay [17], more than 25 µM; in assay [18], 7.56 µM. Besides, the TGI in assay [19] was more than 25 µM; in assay [20], 3.77 µM.
Turning to `O=C(O)c1cc2c(cc1CC(Cc1ccc3c(c1)CCCC3)C(=O)O)CCCC2` (stereo not given), the TGI in assay [1], in assay [2], in [3], in assay [4], in assay [5] and in [6] was more than 100 µM in each case. In addition, the TGI is more than 100 µM in [7]; 0.758 µM in assay [8]; more than 100 µM in assay [9]; more than 100 µM in assay [10]; more than 100 µM in [11]; more than 100 µM in assay [12]. Moreover, the TGI in [13], in [14], in assay [15], in [16], in [17] and in assay [18] was more than 100 µM each time. The TGI in assay [19] and in assay [20] was more than 100 µM throughout.
For the compound `COC(=O)C1=C(OC(=O)c2ccccc2)C(C(=O)OC)[C@@]2(O)[C@@H](C(=O)OC)[C@H](C)C[C@@H]1[C@@H]2C(=O)OC` (stereo not given in full), the TGI in assay [1], in assay [2], in [3], in [4], in assay [5] and in assay [6] was more than 100 µM each time. Also, the TGI in assay [7] was 34.5 µM; in [8], more than 100 µM; in assay [9], 33 µM; in assay [10] it was more than 100 µM; in assay [11], more than 100 µM; in assay [12], 94.5 µM. The TGI in assay [13], in assay [14], in assay [15], in [16], in assay [17] and in assay [18] was more than 100 µM in each case. Moreover, the TGI in assay [19] and in [20] was more than 100 µM each time.
For `CC(=NNC(=S)Nc1cccc(C)c1)c1cccc(C(C)=NNC(=S)Nc2cccc(C)c2)n1`, the TGI is more than 100 µM in assay [1]; 40.8 µM in assay [2]; more than 100 µM in assay [3]; 46.7 µM in [4]; 86.3 µM in assay [5]; 30.8 µM in [6]. Moreover, the TGI in assay [7] was 46.1 µM; in assay [8], 38.5 µM; in assay [9], 57.9 µM; in [10] it was 69.2 µM; in [11] it was 95.1 µM; in assay [12], 61.6 µM. The TGI in [13] was 39.3 µM; in assay [14], more than 100 µM; in assay [15] it was 0.0745 µM; in [16], 77.7 µM; in assay [17], 61.6 µM; in assay [18], more than 100 µM. Besides, the TGI in [19] is 49.2 µM; in [20], more than 100 µM.
In the case of `[N-]=[N+]=Nc1c(Cl)c(Cl)nc2ccccc12`, the TGI in [1], in assay [2], in assay [3], in assay [4], in assay [5] and in assay [6] was more than 100 µM throughout. The TGI in assay [7], in [8], in [9], in [10], in [11] and in assay [12] was more than 100 µM each time. The TGI in [13], in assay [14], in assay [15], in assay [16], in assay [17] and in assay [18] was more than 100 µM each time. Besides, the TGI in assay [19] and in assay [20] was more than 100 µM each time.
As to `CCOC(=O)C1(N)CCc2[nH][nH]c(=O)c2C1` (stereo not given), the TGI in assay [1], in assay [2], in assay [3], in assay [4], in assay [5] and in assay [6] was more than 100 µM throughout. Also, the TGI in assay [7], in assay [8], in assay [9], in [10], in assay [11] and in [12] was more than 100 µM in each case. Besides, the TGI in assay [13], in assay [14], in assay [15], in assay [16], in assay [17] and in [18] was more than 100 µM in each case. Also, the TGI in assay [19] and in assay [20] was more than 100 µM throughout.
